Assay results: ChEMBL document CHEMBL1149449 (Bioorg Med Chem Lett, 2006)

Assays:
[1] = system: Human immunodeficiency virus 1; assay: Antiviral activity in cells infected with wild-type HIV1 H93B in presence of FBS; format: functional; settings: Human immunodeficiency virus 1, H93B; read-out: CIC95
[2] = system: Human immunodeficiency virus 1; assay: Antiviral activity in cells infected with wild-type HIV1 NL4-3 in presence of FBS; format: functional; settings: Human immunodeficiency virus 1, NL4-3; read-out: CIC95
[3] = system: Human immunodeficiency virus 1; assay: Antiviral activity in cells infected with wild-type HIV1 1002-60C mutant; format: functional; settings: Human immunodeficiency virus 1, 1002-60C; read-out: CIC95
[4] = target: Human immunodeficiency virus type 1 protease (Human immunodeficiency virus 1, UniProt Q72874); assay: Inhibitory activity against isolated wild-type HIV1 protease
[5] = system: Human immunodeficiency virus 1; assay: Antiviral activity in cells infected with wild-type HIV1; format: functional; settings: read-out: CIC95
[6] = target: Human immunodeficiency virus type 1 protease (Human immunodeficiency virus 1) (UniProt Q72874); assay: Ratio of inhibitory effect against HIV1 protease in cellular over isolated enzyme assay; format: functional
[7] = system: Human immunodeficiency virus 1; assay: Antiviral activity in cells infected with wild-type HIV1 4X mutant; format: functional; settings: Human immunodeficiency virus 1, 4X; read-out: CIC95
[8] = system: Human immunodeficiency virus 1; assay: Antiviral activity in cells infected with wild-type HIV1 1026-60C mutant; format: functional; settings: Human immunodeficiency virus 1, 1026-60C; read-out: CIC95
[9] = system: Human immunodeficiency virus 1; assay: Antiviral activity in cells infected with wild-type HIV1 H93B in presence of NHS; format: functional; settings: Human immunodeficiency virus 1, H93B; read-out: CIC95
[10] = system: Human immunodeficiency virus 1; assay: Antiviral activity in cells infected with wild-type HIV1 NL4-3 in presence of NHS; format: functional; settings: Human immunodeficiency virus 1, NL4-3; read-out: CIC95
[11] = system: Human immunodeficiency virus 1; assay: Antiviral activity in cells infected with wild-type HIV1 1002-60C mutant in presence of NHS; format: functional; settings: Human immunodeficiency virus 1, 1002-60C; read-out: CIC95
[12] = system: Human immunodeficiency virus 1; assay: Antiviral activity in cells infected with wild-type HIV1 4X mutant in presence of NHS; format: functional; settings: Human immunodeficiency virus 1, 4X; read-out: CIC95
[13] = system: Human immunodeficiency virus 1; assay: Antiviral activity in cells infected with wild-type HIV1 1026-60C mutant in presence of NHS; format: functional; settings: Human immunodeficiency virus 1, 1026-60C; read-out: CIC95

| IC50 [4] | SMILES | IC95 [1] | IC95 [2] | IC95 [3] | IC95 [5] | Ratio CIC95/IC50 [6] | IC95 [7] | IC95 [8] | IC95 [9] | IC95 [10] | IC95 [11] | IC95 [12] | IC95 [13] |
| --- | --- | --- | --- | --- | --- | --- | --- | --- | --- | --- | --- | --- | --- |
| 0.002 µM | NC(=O)O[C@@H]1Cc2ccccc2[C@@H]1C1=C(O)[C@](Cc2ccccc2)(C[C@H](O)[C@H](Cc2ccccc2)NC(=O)O[C@H]2CCOC2)N=C1 |  |  |  | 0.25 µM | 125 |  |  |  |  |  |  |  |
| 0.096 µM | CC(C)(C)CC(=O)N[C@@H](Cc1ccccc1)[C@@H](O)C[C@]1(Cc2ccccc2)N=CC(C2c3ccccc3[C@H]3NC(=O)OC23)=C1O (some centres undefined) |  |  |  | 3.12 µM | 32.5 |  |  |  |  |  |  |  |
| 0.0205 µM | CC(C)(C)OC(=O)N[C@@H](Cc1ccccc1)[C@@H](O)C[C@]1(Cc2ccccc2)N=CC(C2C[C@H](CC(N)=O)c3ccccc32)=C1O (some centres undefined) |  |  |  | > 0.4 µM |  |  |  |  |  |  |  |  |
| > 0.25 µM | CC(C)(C)CC(=O)N[C@@H](Cc1ccccc1)[C@@H](O)C[C@]1(Cc2ccccc2)N=CC(C2C[C@H](CC(N)=O)c3ccccc32)=C1O (some centres undefined) |  |  |  | 12.5 µM |  |  |  |  |  |  |  |  |
| 0.0057 µM | O=C(N[C@@H](Cc1ccccc1)[C@@H](O)C[C@]1(Cc2ccccc2)N=CC([C@@H]2CNC(=O)c3ccccc32)=C1O)O[C@H]1CCOC1 |  |  |  | 0.781 µM | 137 |  |  |  |  |  |  |  |

The next lines start with the compound.

| SMILES | IC50 [4] | IC95 [1] | IC95 [2] | IC95 [3] | IC95 [5] | Ratio CIC95/IC50 [6] | IC95 [7] | IC95 [8] | IC95 [9] | IC95 [10] | IC95 [11] | IC95 [12] | IC95 [13] |
| --- | --- | --- | --- | --- | --- | --- | --- | --- | --- | --- | --- | --- | --- |
| CC(C)(C)OC(=O)N[C@@H](Cc1ccccc1)[C@@H](O)C[C@]1(Cc2ccccc2)N=CC(C2c3ccccc3[C@H]3NC(=O)OC23)=C1O (some centres undefined) | 0.0025 µM | 0.156 µM | 0.156 µM | 2.5 µM | 0.2 µM | 80 | 2.5 µM | 0.625 µM | 0.312 µM | 0.625 µM | 10 µM | 5 µM | 1.25 µM |
| O=C(N[C@@H](Cc1ccccc1)[C@@H](O)C[C@]1(Cc2ccccc2)N=CC([C@H]2c3ccccc3C[C@H]2O)=C1O)O[C@H]1CCOC1 | 0.002 µM | 0.156 µM | 0.078 µM | 1.25 µM | 0.1 µM | 50 | 0.625 µM | 0.156 µM | 0.156 µM | 0.156 µM | 1.25 µM | 1.25 µM | 0.312 µM |
| CC(C)(C)NC(=O)[C@@H]1CN(Cc2cccnc2)CCN1C[C@@H](O)C[C@@H](Cc1ccccc1)C(=O)N[C@H]1c2ccccc2C[C@H]1O |  | 0.05 µM | 0.05 µM | 0.4 µM | 0.025 µM |  | 0.1 µM | 0.4 µM | 0.025 µM | 0.05 µM | 0.4 µM | 0.1 µM | 0.4 µM |
| O=C1N[C@@H]2c3ccccc3C(C3=C(O)[C@](Cc4ccccc4)(C[C@H](O)[C@H](Cc4ccccc4)NC(=O)O[C@H]4CCOC4)N=C3)C2O1 (some centres undefined) | 0.00044 µM | 0.625 µM | 0.625 µM | 1.25 µM | 0.4 µM | 909 | 0.156 µM | 0.312 µM | 0.625 µM | 0.625 µM | 1.25 µM | 0.312 µM | 0.312 µM |
| NC(=O)C[C@H]1CC(C2=C(O)[C@](Cc3ccccc3)(C[C@H](O)[C@H](Cc3ccccc3)NC(=O)O[C@H]3CCOC3)N=C2)c2ccccc21 (some centres undefined) |  | 1.25 µM | 0.312 µM | 1.25 µM | 0.781 µM |  | 0.625 µM | 0.312 µM | 1.25 µM | 0.625 µM | 2.5 µM | 1.25 µM | 0.625 µM |
